Test results: PubChem BioAssay (NCI)
Several values for one entry are separate records, joined by “and”; a condition that tells them apart may be missing. Identical values can stand only once.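 Results reflect a 48-hour exposure of cells in 96-well plates to compound at five concentrations. Here, GI50 denotes the concentration required for 50% inhibition of growth. TGI is the concentration that stops growth completely.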

Tests used:
Assay in all cases: DTP human tumour cell line panel, 48 h
786-0 renal = tested on: 786-0 renal
ACHN renal = tested on: ACHN renal
CAKI-1 renal = tested on: CAKI-1 renal
CCRF-CEM leukemia = tested on: CCRF-CEM leukemia
DU-145 prostate = tested on: DU-145 prostate
HOP-62 NSCLC = tested on: HOP-62 NSCLC
IGROV1 ovarian = tested on: IGROV1 ovarian
MDA-MB-231 breast = tested on: MDA-MB-231 breast
SK-MEL-2 melanoma = tested on: SK-MEL-2 melanoma
SN12C renal = tested on: SN12C renal

| SMILES | GI50 (786-0 renal) | TGI (786-0 renal) | GI50 (ACHN renal) | TGI (ACHN renal) | GI50 (CAKI-1 renal) | TGI (CAKI-1 renal) | GI50 (CCRF-CEM leukemia) | GI50 (DU-145 prostate) | TGI (DU-145 prostate) | GI50 (HOP-62 NSCLC) | TGI (HOP-62 NSCLC) | GI50 (IGROV1 ovarian) | TGI (IGROV1 ovarian) | GI50 (MDA-MB-231 breast) | TGI (MDA-MB-231 breast) | GI50 (SK-MEL-2 melanoma) | TGI (SK-MEL-2 melanoma) | GI50 (SN12C renal) | TGI (SN12C renal) | TGI (CCRF-CEM leukemia) |
| --- | --- | --- | --- | --- | --- | --- | --- | --- | --- | --- | --- | --- | --- | --- | --- | --- | --- | --- | --- | --- |
| COc1ccc2c(c1)[nH]c(=O)c1c3cc(C)c(C)cc3cn21 | < 0.0233 µM | 1.6 µM | < 0.0173 µM | 1.58 µM | < 0.01 µM | 0.0102 µM | < 0.0149 µM | < 0.01 µM | 0.188 µM | < 0.0185 µM | 1.9 µM | < 0.0188 µM | 0.215 µM | 0.0291 µM | 1.53 µM | < 0.0208 µM | 6.19 µM | < 0.0192 µM | 1.74 µM |  |
| CC(=O)Nc1ccc2c(c1)c(C1=C(c3cn(C)c4ccccc34)C(=O)NC1=O)cn2C | 1.28 µM | > 25 µM | 1.57 µM | > 25 µM | 1.07 µM | 24.3 µM | 0.991 µM | 4.02 µM | > 25 µM | 1.98 µM | > 25 µM | 16.4 µM | > 25 µM | 5 µM | > 25 µM | 0.94 µM | 5.74 µM | 1.66 µM | > 25 µM | > 25 µM |
| COc1cc(O)c([C@@H]2C[C@H](CCc3ccc(O)cc3)O[C@H](c3ccc(O)cc3)C2)c(O)c1C(=O)/C=C/c1ccc(O)cc1 | 2.28 µM | 4.97 µM | 2.43 µM | 6.01 µM | 5.76 µM | 18.3 µM | 2.32 µM | 3.15 µM | 10.1 µM | 2.77 µM | 6.02 µM | 2.2 µM | 5.44 µM | 2.5 µM | 6.23 µM | 2.38 µM | 6.86 µM | 3.23 µM | 13.8 µM | 7.36 µM |
| Cc1cc(-c2ncc(CC(=O)Nc3ccc(-c4cnccn4)cn3)cc2C)ccn1 | > 100 µM | > 100 µM | 31.5 µM | > 100 µM | 17.1 µM | > 100 µM | 35.8 µM | 72.9 µM | > 100 µM | 33.5 µM | > 100 µM | 30.5 µM | > 100 µM | 55.7 µM | > 100 µM | 27.8 µM | > 100 µM | 91.7 µM | > 100 µM | > 100 µM |
| COc1ccc(C(=O)/C(Br)=C/C(=O)O)cc1 | 10.8 µM and 30.7 µM | 56.1 µM and 99.1 µM | 78.8 µM | 293 µM and 235 µM |  | 148 µM and 154 µM | 3.22 µM and 9.43 µM | 65.3 µM | 128 µM and 202 µM | 24.1 µM | 58.3 µM and 50.3 µM | 121 µM and 144 µM | 321 µM and 461 µM | 53.7 µM | 84 µM and 115 µM |  | 29.3 µM and 32 µM | 53.7 µM | 228 µM and 183 µM | 61 µM and 81.7 µM |
| COc1ccc(-c2nn3ncccc3c2-c2ccnc(Nc3ccc(Cl)c(C(F)(F)F)c3)n2)cc1 | 11 µM | > 25 µM | 10.1 µM | > 25 µM | 12.4 µM | > 25 µM | 8.37 µM | 14 µM | > 25 µM | 15.5 µM | > 25 µM | 9.48 µM | > 25 µM | 8.56 µM | > 25 µM | 11.6 µM | > 25 µM | 9.54 µM | > 25 µM | > 25 µM |
| COc1cc(-c2nn(-c3ccc(NC(=O)c4ccc(Cl)c(Cl)c4)cc3)cc2-c2ccncc2)ccc1Cl | 2.05 µM | 4.59 µM | 8.06 µM | > 100 µM | 3.67 µM | > 100 µM | 4.56 µM | > 100 µM | > 100 µM | 2.28 µM | 7.51 µM | > 100 µM | > 100 µM | 3.66 µM | > 100 µM | 5.74 µM | > 100 µM | 5.11 µM | > 100 µM | > 100 µM |
| COc1cc(C2CC(c3ccc(C)cc3)=NN2C=O)ccc1Oc1ccnc2cc(Cl)ccc12 (configuration not stated) | 5.07 µM | 19.6 µM | 4.39 µM | > 50 µM | > 50 µM | > 50 µM | > 50 µM | > 50 µM | > 50 µM | 1.68 µM | 8.95 µM | 24.8 µM | > 50 µM | 4.23 µM | 43.8 µM | 7.39 µM | 18.3 µM | > 50 µM | > 50 µM | > 50 µM |
| COc1ccc2c(c1)/C(=C\c1c(C)nc3sc(C)cn13)C(=O)N2C | 8.92 µM | > 100 µM | 4.82 µM | 62.7 µM | 1.33 µM | 4.33 µM | 5.46 µM | 11 µM | > 100 µM | 20.5 µM | > 100 µM | 9.74 µM | > 100 µM | 4.59 µM | 65 µM | 9.57 µM | > 100 µM | 4.7 µM | 32.3 µM | > 100 µM |
